Data: patent publication US20240423952A1, “COMPOSITIONS AND METHODS FOR TREATING CONGENITAL DISORDERS” (Ibagen Pharmaceuticals, Inc., priority 2021, published 2024)
“And” between values parts separate entries of the source, which are not always exact repeats. Identical values can stand only once. Counter-ions that a name gives are not always drawn.

Columns and labels:
[1] = system: EG9152 GOF worms (C. elegans NALCN(gf) model); test: Screen of putative NALCN antagonists by motor behavior, GOF worms on compound agar; format: in vivo
Description: (§1) Compounds were dissolved in the vehicle in which they were the most soluble (DMSO or molecular grade water). […] Microwave to dissolve (note: this will boil over rapidly). The screen is performed in a 24-well flat-bottom plate. […] Proceed to next step quickly. […] Immediately begin mixing with pipette tip until the compound dissolves (at this point the mixture should be clear). Fill the remainder of the plate (I usually prepare duplicate wells for each compound) and cover with aluminum foil to protect the compounds from light. Leave at room temperature overnight to allow the plate to dry before screening. […] Prepare at least 4 small plates for each line. […] Pick a line to start with. […] Start timing as soon as a well has been filled. […] Touch the tail of each worm gently with a platinum wire to promote motion. Record any observations. (I like to record the proportion of worms that retain the original phenotype, the proportion that show full body paralysis/death, and the proportion that show paralysis of the neck only).

[2] = system: N2 non-transgenic worms; test: Screen of putative NALCN antagonists by motor behavior, N2 control worms on compound agar; format: in vivo, C. elegans
Description: as §1

[3] = system: Outward K+ currents; test: Electrophysiology tests, whole-cell recording of E16 embryonic cortical neurons; format: cell-based; settings: mouse E16 cortical neurons, ramp −60~+80 mV, quantified at +80 mV (figure legends)
Description: Briefly, the cerebral cortex was isolated from embryos of E16 pregnant mouse (C57/BL6) and cut into small cubes. After being digested in 0.05% Trypsin for 25-30 mins in 37° C. in incubator, the Trypsin was neutralized with 1-2 ml DMEM (containing 10% FBS. The pellets were then triturated with a pipette for 10-15 time and then diluted into plating media (DMEM with 10% FBS). The cell suspension was sieved through a […] nylon filter and plated onto cover slips coated with poly-D-lysine (PDL) in 35 mm dishes at density of 2×10^5 cells per dish. After culturing for 2 hrs in incubator, the plating media was replaced with the following media: Neurobasal media supplemented with 2% B27. Neurobasal media was changed every 3 days until the experiment start.
Membrane potentials of neurons were recorded in whole-cell configuration at 20° C.-22° C. in a mouse E16 embryonic cortical neuron preparation. The pipette solution contained (in mM): K-Gluconate 115; KCl 25; CaCl2) 0.1; MgCl2 5; BAPTA 1; HEPES 10; Na2ATP 5; Na2GTP 0.5; cAMP 0.5; cGMP 0.5, pH 7.2 with KOH, 320 mOsm. The bath solution consisted of (in mM): NaCl 150; KCl 5; CaCl2) 5; MgCl2 1; glucose 10; sucrose 5; HEPES 15, pH 7.3 with NaOH, 330 mOsm. For zero and 15 Na+ solution, extracellular Na+ ([Na+]o) was replaced with N-methyl-D-glucamine (NMDG+) or Tris+. RMP was recorded at 0 pA. […]

`COc1cc2c3cc1Oc1c(OC)c(OC)cc4c1[C@@H](Cc1ccc(O)c(c1)Oc1ccc(cc1)C[C@@H]3N(C)CC2)N(C)CC4` [Berbamine dihydrochloride, Berbamine] was tested, and the “proportion of worms: LOF” value ([1]; 4.4 mM, 30 min, Trial 3) was “GOF, 25% LOF”, the “proportion of worms: rescue” value ([1]; 4.4 mM, 30 min, Trials 1-3) was 30 min: 20% and 30 min: 70% and 30 min: 33% and the “proportion of worms: rescue” value ([1]; 4.4 mM, 1 hr, Trial 1) was 1 hr: 50-60%. For the same compound, the “phenotype proportions at 1 hr compared with 30 min” value ([1]; 4.4 mM, 1 hr, Trials 2-3) was 1 hr: no change, the response ([2]; 4.4 mM, 30 min, Trial 1) was 30 min: No and the “proportion of worms: “rescue”” value ([2]; 4.4 mM, 30 min, Trials 2-3) was 30 min: 70% and 30 min: 30%. The “phenotype proportions at 1 hr compared with 30 min” value ([2]; 4.4 mM, 1 hr, Trial 3) was 1 hr: no change.
For `CCOC(=O)c1ccc(N)cc1` [Benzocaine], the “proportion of worms: rescue” value ([1]; 2.4 mM, 20 min, Trials 3-4) was 20 min: 40% and 20 min: 33%, the “proportion of worms: rescue” value ([1]; 2.4 mM, 40 min, Trials 3-4) was 40 min: 8% and 40 min: 11% and the “Rescue worms still move fairly ...” value ([1]; 4.71 mM, 30 min, Trial 1) was “quickly”. For the same compound, the “amplitude of body bends overall” value ([1]; 4.71 mM, 30 min, Trial 1) was “Reduced”, the “proportion of worms: rescue” value ([1]; 4.71 mM, 30 min, Trials 1-2) was 30 min: 38% and 30 min: 8% and the “proportion of worms: LOF” value ([1]; 4.71 mM, 1 hr, Trials 1-2) was 1 hr: 100%. For the same compound, the “paralysis of neck and reduced body bend amplitude but not as obvious a phenotype as Verapamil” value ([1]; remark for the trials at 4.71 mM and 2.4 mM) was “Show”, the “proportion of worms: N2” value ([2]; 2.4 mM, 20 min, Trials 3-4) was 20 min: 28% N2, and 20 min: 27% N2, and the “proportion of worms: sluggish N2” value ([2]; 4.71 mM, 30 min, Trial 2) was 30 min: 18%. For the same compound, the “proportion of worms: LOF” value ([2]; 4.71 mM, 1 hr, Trials 1-2) was 1 hr: 100%.
For `CCOC(=O)C1=C(COCCN)NC(C)=C(C(=O)OC)C1c1ccccc1Cl` (centres unmarked) [Amlodipine Besylate, Amlodipine], the “proportion of worms: GOF” value ([1]; 1.25 mM, 30 mins, Trial 4) was “rescue, 36% GOF”, the “proportion of worms: rescue” value ([1]; 1.25 mM, 30 mins, Trial 4) was 30 mins: 64% and the “proportion of worms: GOF” value ([1]; 1.25 mM, 1 hr, Trial 4) was 27%. For the same compound, the “proportion of worms: LOF” value ([1]; 1.25 mM, 1 hr, Trial 4) was 9%, the “proportion of worms: rescue” value ([1]; 1.25 mM, 1 hr, Trial 4) was 1 hr: 64% rescue, and the “effect on Outward K+ currents” value [3] was “blocked”. The “proportion of worms: “rescue” (slight but present)” value ([2]; 1.25 mM, 30 mins, Trial 4) was 30 mins: 50%, the “proportion of worms: WT(N2)” value ([2]; 1.25 mM, 1 hr, Trial 4) was 10% WT(N2) and the “proportion of worms: rescue” value ([2]; 1.25 mM, 1 hr, Trial 4) was 1 hr: 90% rescue,.
With `CN1CCOC(c2ccccc2)c2ccccc2C1` (centres unmarked) [Nefopam] the “proportion of worms: LOF” value ([1]; 3.3 mM, 20 min, Trial 3) was “rescue, 30%”, the “proportion of worms: GOF” value ([1]; 3.3 mM, 20 min, Trial 4) was “rescue, 31% GOF” and the “proportion of worms: rescue” value ([1]; 3.3 mM, 20 min, Trials 3-4) was 20 min: 70% and 20 min: 69%. For the same compound, the “proportion of worms: GOF” value ([1]; 3.3 mM, 40 min, Trial 3) was “rescue, 8% GOF,”, the “proportion of worms: LOF” value ([1]; 3.3 mM, 40 min, Trial 3) was 67% LOF and the “proportion of worms: rescue” value ([1]; 3.3 mM, 40 min, Trials 3-4 (Trial 4: sluggish)) was 40 min: 100% and 40 min: 25%. For the same compound, the “proportion of worms: rescue” value ([1]; 6.65 mM, 20 min, Trials 1-2) was 20 min: 33% and 20 min: 90%, the “proportion of worms: rescue” value ([1]; 6.65 mM, 50 min, Trial 2) was 50 min: 60% and the “effect on Outward K+ currents” value [3] was “blocked”. For the same compound, the “proportion of worms: “rescue”” value ([2]; 3.3 mM, 20 min, Trials 3-4) was 20 min: 15% and 20 min: 7%, the “proportion of worms: “rescue”” value ([2]; 6.65 mM, 20 min, Trials 1-2) was 20 min: 9% and 20 min: 23% and the “proportion of worms: LOF” value ([2]; 6.65 mM, 50 min, Trials 1-2) was 50 min: 100%.
